Patent US20230233569A1 (Revolution Medicines, Inc., priority 2020, published 2023)
Where “and” joins values, the source holds several entries; their conditions need not be identical. Identical values can stand only once.

How the values were obtained:
Capan-1 (K-Ras G12V) = experiment: CellTiter-Glo cell viability assay, 5-day treatment; type: cell-based; conditions: Homo sapiens, CAPAN-1, 120 h, 5-day treatment; read-out: Capan-1 Cell Viability assay data (K-Ras G12V, IC50)
Summary of the method: (§1)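 Five-day compound treatment of plated cells; luminescent read after ~30 min at RT. Percent-of-DMSO data fit to a four-parameter logistic model.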

NCI-H358 (K-Ras G12C) = experiment: as above; type: cell-based; conditions: Homo sapiens, NCI-H358, 120 h, 5-day treatment; read-out: H358 Cell Viability assay data (K-Ras G12C, IC50)
Summary of the method: as §1

KRAS G12C = KRAS G12C (Homo sapiens, UniProt P01116+P62937, G12C); experiment: Disruption of BRAF RBD interaction with Ras (FRET / MOA assay, with Cyclophilin A); type: biochemical; conditions: read-out: KRAS G12C FRET data, IC50
Summary of the method: (§2)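 First, compounds at a ten-point threefold dilution series (highest final concentration 30 μM) were incubated with nucleotide-loaded K-Ras, Cyclophilin A and BRAF RBD for 3 h at 25 °C. Next, detection antibodies were added for 1.5 h. Finally, IC50 was calculated from TR-FRET ratio decreases against DMSO controls.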

KRAS G12D = KRAS G12D (Homo sapiens, UniProt P01116+P62937, G12D); experiment: as above; type: biochemical; conditions: read-out: KRAS G12D FRET data, IC50
Summary of the method: as §2

KRAS G12S = KRAS G12S (Homo sapiens, UniProt P01116+P62937, G12S); experiment: as above; type: biochemical; conditions: read-out: KRAS G12S FRET data, IC50
Summary of the method: as §2

KRAS G12V = KRAS G12V (Homo sapiens, UniProt P01116+P62937, G12V); experiment: as above; type: biochemical; conditions: KRAS G12V; read-out: KRAS G12V FRET data IC50
Summary of the method: as §2

KRAS G13C = KRAS G13C (Homo sapiens, UniProt P01116+P62937, G13C); experiment: as above; type: biochemical; conditions: read-out: KRAS G13C FRET data, IC50
Summary of the method: as §2

KRAS G13D = KRAS G13D (Homo sapiens, UniProt P01116+P62937, G13D); experiment: as above; type: biochemical; conditions: KRAS G13D; read-out: KRAS G13D FRET data IC50
Summary of the method: as §2

KRAS WT = KRAS WT (Homo sapiens, UniProt P01116+P62937); experiment: as above; type: biochemical; conditions: KRAS WT; read-out: KRAS WT FRET data IC50
Summary of the method: as §2

NRAS G12C = NRAS G12C (Homo sapiens, UniProt P01111+P62937, G12C); experiment: as above; type: biochemical; conditions: NRAS G12C; read-out: NRAS G12C FRET data IC50

Measured: IC50

Sequence of KRAS G12S (P01116 1-169 isoform P01116-2 G12S limits assumed): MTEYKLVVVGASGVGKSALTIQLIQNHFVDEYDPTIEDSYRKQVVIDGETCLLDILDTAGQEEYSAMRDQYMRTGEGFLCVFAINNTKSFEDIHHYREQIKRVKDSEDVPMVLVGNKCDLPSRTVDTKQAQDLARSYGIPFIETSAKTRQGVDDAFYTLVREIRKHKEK
Sequence of KRAS G12S (P62937 whole entry): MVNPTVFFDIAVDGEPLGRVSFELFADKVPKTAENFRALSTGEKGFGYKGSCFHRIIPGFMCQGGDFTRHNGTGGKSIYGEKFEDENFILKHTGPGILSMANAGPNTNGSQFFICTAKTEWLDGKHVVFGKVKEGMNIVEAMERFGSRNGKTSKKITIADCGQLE
Sequence of KRAS G13C (P01116 1-169 isoform P01116-2 G13C): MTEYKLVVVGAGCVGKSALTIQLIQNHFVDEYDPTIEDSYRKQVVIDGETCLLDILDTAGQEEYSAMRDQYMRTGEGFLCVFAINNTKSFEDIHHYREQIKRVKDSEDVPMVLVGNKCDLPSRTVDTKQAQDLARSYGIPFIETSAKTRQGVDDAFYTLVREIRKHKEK
Sequence of KRAS G13C (P62937 whole entry): as the sequence (P62937 whole entry) above
Sequence of KRAS G12D (P01116 1-169 isoform P01116-2 G12D limits assumed): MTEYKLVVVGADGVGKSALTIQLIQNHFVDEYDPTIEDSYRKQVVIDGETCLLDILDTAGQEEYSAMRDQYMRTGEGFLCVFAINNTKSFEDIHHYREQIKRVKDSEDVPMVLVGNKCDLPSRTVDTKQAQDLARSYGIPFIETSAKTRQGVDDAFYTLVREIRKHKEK
Sequence of KRAS G12D (P62937 whole entry): as the sequence (P62937 whole entry) above
Sequence of NRAS G12C (P01111 whole entry G12C): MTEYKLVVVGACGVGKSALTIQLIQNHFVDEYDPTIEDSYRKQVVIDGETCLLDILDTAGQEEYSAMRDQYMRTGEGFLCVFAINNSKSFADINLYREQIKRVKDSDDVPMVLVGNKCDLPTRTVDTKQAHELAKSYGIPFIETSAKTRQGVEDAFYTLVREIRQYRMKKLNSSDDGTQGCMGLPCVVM
Sequence of NRAS G12C (P62937 whole entry): as the sequence (P62937 whole entry) above
Sequence of KRAS G12C (P01116 1-169 isoform P01116-2 G12C): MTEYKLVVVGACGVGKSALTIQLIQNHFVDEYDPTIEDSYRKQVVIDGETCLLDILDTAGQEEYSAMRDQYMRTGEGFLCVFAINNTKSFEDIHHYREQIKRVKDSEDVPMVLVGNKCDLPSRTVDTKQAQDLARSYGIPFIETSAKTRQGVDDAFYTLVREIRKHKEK
Sequence of KRAS G12C (P62937 whole entry): as the sequence (P62937 whole entry) above
Sequence of KRAS WT (P01116 1-169 isoform P01116-2 limits assumed): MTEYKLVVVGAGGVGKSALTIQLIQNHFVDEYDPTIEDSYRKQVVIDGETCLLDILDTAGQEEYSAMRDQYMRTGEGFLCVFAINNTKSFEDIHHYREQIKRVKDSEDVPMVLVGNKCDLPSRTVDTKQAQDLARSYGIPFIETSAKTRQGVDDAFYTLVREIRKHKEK
Sequence of KRAS WT (P62937 whole entry): as the sequence (P62937 whole entry) above
Sequence of KRAS G13D (P01116 1-169 isoform P01116-2 G13D limits assumed): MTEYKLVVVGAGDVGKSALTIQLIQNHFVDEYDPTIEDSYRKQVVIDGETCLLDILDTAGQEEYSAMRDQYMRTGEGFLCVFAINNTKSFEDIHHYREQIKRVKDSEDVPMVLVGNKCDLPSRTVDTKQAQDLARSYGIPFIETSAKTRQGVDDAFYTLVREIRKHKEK
Sequence of KRAS G13D (P62937 whole entry): as the sequence (P62937 whole entry) above
Sequence of KRAS G12V (P01116 1-169 isoform P01116-2 G12V limits assumed): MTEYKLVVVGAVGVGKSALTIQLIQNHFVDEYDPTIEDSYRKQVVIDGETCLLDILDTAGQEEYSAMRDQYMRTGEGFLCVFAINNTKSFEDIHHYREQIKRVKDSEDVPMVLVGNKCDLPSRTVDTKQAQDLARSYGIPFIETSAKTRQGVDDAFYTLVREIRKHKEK
Sequence of KRAS G12V (P62937 whole entry): as the sequence (P62937 whole entry) above

CCN1CC(C(=O)N(C)[C@H](C(=O)N[C@H]2Cc3cc(O)cc(c3)-c3ccc4c(c3)c(c(-c3cccnc3[C@H](C)OC)n4CC)CC(C)(C)COC(=O)[C@@H]3CCCN(N3)C2=O)C(C)C)CC1=O (some centres unmarked) [Example A248]
0.1 to 1 µM and 0.01 to 0.1 µM: KRAS G12V | KRAS G13D | KRAS WT
0.1 to 1 µM: Capan-1 (K-Ras G12V) | KRAS G12D
0.01 to 0.1 µM: all other assays above

CCn1c(-c2cccnc2[C@H](C)OC)c2c3cc(ccc31)-c1cc(O)cc(c1)C[C@H](NC(=O)[C@H](C(C)C)N(C)C(=O)[C@@H]1CCNC1)C(=O)N1CCC[C@H](N1)C(=O)OCC(C)(C)C2 [Example A129]
1 to 10 µM: Capan-1 (K-Ras G12V) | NCI-H358 (K-Ras G12C)
0.1 to 1 µM: KRAS G12V
0.01 to 0.1 µM: all other assays above

CCn1c(-c2cccnc2[C@H](C)OC)c2c3cc(ccc31)-c1csc(n1)C[C@H](NC(=O)[C@H](C(C)C)N(C)C(=O)N1CCN(C)C3(CC3)C1)C(=O)N1CCC[C@H](N1)C(=O)OCC(C)(C)C2 [Example A311]
0.01 to 0.1 µM: NCI-H358 (K-Ras G12C)
0.1 to 1 µM: all other assays above

CCn1c(-c2cccnc2[C@H](C)OC)c2c3cc(ccc31)-c1cc(O)cc(c1)C[C@H](NC(=O)[C@H](C(C)C)N(C)C(=O)[C@H]1CCN(C(=O)CN(C)C)C1)C(=O)N1CCC[C@H](N1)C(=O)OCC(C)(C)C2 [Example A95]
0.1 to 1 µM: Capan-1 (K-Ras G12V) | NCI-H358 (K-Ras G12C)
0.01 to 0.1 µM: all other assays above

CCn1c(-c2cccnc2[C@H](C)OC)c2c3cc(ccc31)-c1csc(n1)C[C@H](NC(=O)[C@H](C(C)C)N(C)C(=O)N1C[C@H]3CN(C)C[C@H]3C1)C(=O)N1CCC[C@H](N1)C(=O)OCC(C)(C)C2 [Example A313]
0.01 to 0.1 µM: Capan-1 (K-Ras G12V) | NCI-H358 (K-Ras G12C) | NRAS G12C
0.1 to 1 µM: all other assays above

CCn1c(-c2cccnc2[C@H](C)OC)c2c3cc(ccc31)-c1csc(n1)C[C@H](NC(=O)[C@H](C1CCCC1)N(C)C(C)=O)C(=O)N1CCC[C@H](N1)C(=O)OCC(C)(C)C2 [Example A141]
0.01 to 0.1 µM: Capan-1 (K-Ras G12V) | NCI-H358 (K-Ras G12C)
> 10 µM: KRAS G12D
1 to 10 µM: all other assays above

CCn1c(-c2cccnc2[C@H](C)OC)c2c3cc(ccc31)-c1cc(O)cc(c1)C[C@H](NC(=O)[C@H](C(C)C)N(C)C(=O)N1CC(N(C)C)C1)C(=O)N1CCC[C@H](N1)C(=O)OCC(C)(C)C2 [Example A171]
0.01 to 0.1 µM: KRAS G13C
0.1 to 1 µM: all other assays above

CCN(CC)C1CN(C(=O)N(C)[C@H](C(=O)N[C@H]2Cc3nc(cs3)-c3ccc4c(c3)c(c(-c3cccnc3[C@H](C)OC)n4CC)CC(C)(C)COC(=O)[C@@H]3CCCN(N3)C2=O)C(C)C)C1 [Example A319]
0.01 to 0.1 µM: Capan-1 (K-Ras G12V) | NCI-H358 (K-Ras G12C) | NRAS G12C
1 to 10 µM: KRAS G12D
0.1 to 1 µM: all other assays above
